PMC6312359, “Diisopropylphenyl-imidazole (DII): A new compound that exerts anthelmintic activity through novel molecular mechanisms” (PLoS Neglected Tropical Diseases, 2018)

Columns and labels:
[1] = system: C. elegans; assay: Screening imidazole compounds: worm survival; type: in vivo, Caenorhabditis elegans; conditions: 150 μg/ml, 72 h, 20°C, young adult wild-type worms, liquid medium (S-Basal) with E. coli OP50
Method: 100–150 young adult wild-type worms were exposed to these compounds (150 μg/ml) in liquid medium (S-Basal) containing E. coli OP50. Micromolar concentrations for each compound are: 487 μM for 1, 428 μM for 2, 410 μM for 3, 375 μM for 4, 789 μM for 5, 735 μM for 6, 389 μM for 7, 319 μM for 8, 263 μM for 9, 806 μM for 10 and 657 μM for 11. Compounds were dissolved in water or DMSO according to their solubility. After 72 h, animal survival was analyzed. An animal was considered dead if it made no movement in response to gentle prodding with a worm pick. At least three independent experiments were analyzed.
We exposed 100–150 young adult worms to these compounds in liquid medium (S-Basal) containing the bacteria E. coli OP50 as a food source. After 72 h at 20°C, we analyzed worm survival (Fig 1B). […] The drug concentration chosen for this screening was 150 μg/ml, which is similar to those used in other screening studies. The corresponding molar concentration for each compound is detailed in Materials and Methods. Depending on their solubility properties, the compounds were dissolved either in water or DMSO (up to 0.75% final concentration).

[2] = system: C. elegans; assay: Lethality assays, dose-dependent, wild-type L4; type: in vivo, Caenorhabditis elegans; conditions: for LC50: Caenorhabditis elegans, L4 wild-type
Method: Dose-dependent lethality was quantified by exposing 40 L4s to DII (0–1000 μM) dissolved in solid medium for 8 and 24 h at 20°C. For survival to 96 h of DII exposure the temperature used was 13°C to avoid food depletion.

[3] = system: HEK-293 cells; assay: Human cell toxicity, propidium iodide staining; type: cell-based
Method: HEK-293 cells were cultured in DMEM medium (Gibco, USA) containing 10% fetal bovine serum (FBS) (Gibco, USA) and penicillin/streptomycin (Gibco, USA) at 37°C in an atmosphere containing 5% CO2. Before DII exposure, cells were dissociated using trypsin-EDTA and seeded in 96 multiwell plates at a density of 1x10^4 cells/ml. Cells were resuspended in fresh medium and different drug concentrations were subsequently added. After 8 h of incubation with 0, 200 and 600 μM of DII or 96 h of incubation with 0 and 100 μM of DII, cells were washed 3 times with PBS and propidium iodide (PI, final concentration 50 μg/ml) was added to stain dead cells. PI incubation was performed for 10 min in the dark at room temperature. DMSO (0–0.7%) and chloroquine (50–200 μM) were used as vehicle and positive controls, respectively. Images were acquired with a Nikon Eclipse TE 2000 fluorescence microscope. The number of stained cells was analyzed manually. At least 3 independent experiments were analyzed.

[4] = system: Drosophila melanogaster; assay: Drosophila melanogaster larval viability; type: in vivo; conditions: 300–1200 μM in food, about 40 h of exposure
Method: All experiments were done at 25°C, under a 12:12 dark:light cycle using the w^1118 strain. Mated females were allowed to lay eggs for 4 h on apple juice egg laying plates supplemented with a thin layer of normal fly food. 2 h after the initiation of egg laying was considered time "0". 30–40 late L2 larvae (66 h after egg laying) were transferred from the plates to tubes containing 3 ml of fly food with 300, 600 and 1200 μM DII or the corresponding concentration of dimethylsulfoxide (DMSO, molecular biology grade, AppliChem). Under these conditions, larvae were exposed to DII until they left the food to pupariate about 40 h later. Larval viability was calculated as the percentage of larvae that reached the pupal stage.
To add drugs, fly food was melted and cooled to 60°C, 3 ml of food were dispensed in tubes and an appropriate volume of DMSO or drug was added and thoroughly mixed. Control tubes without DMSO and […] were prepared following the same procedure. The experiment was independently repeated at least three times.

[5] = system: C. elegans mutant strains; assay: DII nematicidal effect on mutant strains; type: in vivo, Caenorhabditis elegans
Method: To evaluate DII nematicidal effects on mutant strains two different conditions were tested: i) ~40 L4s were exposed to DII (600 μM) in NGM plates and survival was scored at 4, 8, 24, 48 and 72 h, ii) ~40 L4s were exposed to 50 μM for 96 h and survival was subsequently scored. […] At least three independent experiments were analyzed.

[6] = system: C. elegans; assay: Body length measurements; type: in vivo, Caenorhabditis elegans; conditions: 600 μM, 2 h
Method: Vehicle (0.75% DMSO) was used as a control. After 2 h, images were acquired and body length was measured using FIJI-ImageJ software. At least three independent experiments were analyzed.

[7] = system: C. elegans; assay: Egg-laying assays; type: in vivo, Caenorhabditis elegans; conditions: gravid worms
Method: Age-synchronized gravid worms were transferred to solid NGM plates containing different drug concentrations (100–300 μM). Each concentration was evaluated in triplicate and DMSO was used as a control. After 1 h, the number of laid eggs per worm was counted. This experiment was independently repeated three times.

[8] = system: E. coli OP50; assay: OP50 growth in screening wells (qualitative); type: cell-based, Escherichia coli; conditions: 150 μg/ml, qualitative observation
Source text: During the screening assays, we qualitatively noticed that OP50 growth was inhibited in wells containing MI. This effect was not observed with DII. To quantify this observation, we determined minimum inhibitory concentration (MIC) and minimum bactericidal concentration (MBC) of both compounds in E. coli cultures (Fig 2A). […] Similar values were obtained when we performed these assays on S. aureus, a Gram-positive bacteria (Fig 2A). […] As we are here screening for specific anthelmintic activity, we restricted our further analysis to compounds that appear to exert nematicidal action without obvious lethal effects on other organisms. Therefore, we focused our studies only on DII, relegating the evaluation of MI as a potential anthelmintic drug.

[9] = system: C. elegans; assay: Larvicidal activity assays
Method: Three concentrations of drugs were used (100, 300 and 600 μM) and each concentration was repeated in triplicate. After 24, 48 and 72 h alive worms were scored and the results were expressed as the percentage of living worms related to the initial number of L1 animals. This experiment was independently repeated three times.

[10] = 600 μM, short exposure times, no difference after 48 h

CC(C)c1cccc(C(C)C)c1-n1ccnc1 [Compound 11]
worm death [1]: 100%
lethality ([2]; 24 h of exposure, micromolar concentrations): 100%
LC50 ([2]; 8 h of exposure): 448.5 ± 1.1 µM
LC50 ([2]; 24 h of exposure): 342.3 ± 1 µM
LC50 ([2]; 96 h of exposure, 13°C): 23.4 ± 1.06 µM
cell viability ([3]; 0–600 μM, 8 h): do not affect viability on HEK-293 cells
cell viability ([3]; up to 100 μM, 96 h): do not affect cell viability
larval viability (larvae that reached the pupal stage) [4]: does not affect Drosophila larval viability
survival of unc-29 null mutant strain, long exposure ([5]; 50 μM, 96 h): resistant
survival of lev-8 mutants vs wild-type ([5]; 600 μM, 4-72 h): as sensitive to DII as the wild-type
survival of unc-63 mutants vs wild-type ([5]; 600 μM, 4-72 h): as sensitive to DII as the wild-type
survival of lev-1 mutants vs wild-type [5, 10]: slightly resistant
survival of unc-38 mutants vs wild-type [5, 10]: slightly resistant
survival of unc-29(e1072)I null mutants vs wild-type ([5]; CB1072, 600 μM, 4-72 h, listed as DII): extremely resistant
DII-mediated death in muscle unc-29 rescue strain OAR61 ([5]; myo-3::unc-29, unc-29(e1072)I, 600 μM): completely restores
body length [6]: no significant changes
laid eggs in 1 h, fold more than controls ([7]; 100 μM): did not produce an increase
reduction in the number of laid eggs ([7]; 300 μM, 1 h): 3.6 fold
OP50 growth in screening wells [8]: not observed
larvicidal effect on unc-29 null mutant larvae ([9]; 600 μM): as sensitive to the larvicidal effects of DII as the wild-type strain
larvicidal effect on unc-38, unc-63, lev-8 and lev-1 larvae ([9]; 600 μM, 24, 48 and 72 h): sensitive to DII
larval viability, wild-type L1 ([9]; 100, 300 and 600 μM, 24, 48 and 72 h): significant decrease
